According to patent publication US10981902B2 (Merck Sharp & Dohme Corp., priority 2017, dated 2021):

Each molecule was assayed against T1, human M4 muscarinic acetylcholine receptor (Homo sapiens, UniProt P08173) (assay: human FLIPR-based M4 PAM assay (calcium mobilization, CHO-K1 cells with human M4 receptor and Gαqi5)). Conditions: inflection point (IP) of dose response curve, acetylcholine added at 20% of maximum response, read-out: M4 FLIPPR Hu IP.
T1 construct: expressed in transfected cells; host or cells: CHO-K1
T1 sequence (P08173 1-479): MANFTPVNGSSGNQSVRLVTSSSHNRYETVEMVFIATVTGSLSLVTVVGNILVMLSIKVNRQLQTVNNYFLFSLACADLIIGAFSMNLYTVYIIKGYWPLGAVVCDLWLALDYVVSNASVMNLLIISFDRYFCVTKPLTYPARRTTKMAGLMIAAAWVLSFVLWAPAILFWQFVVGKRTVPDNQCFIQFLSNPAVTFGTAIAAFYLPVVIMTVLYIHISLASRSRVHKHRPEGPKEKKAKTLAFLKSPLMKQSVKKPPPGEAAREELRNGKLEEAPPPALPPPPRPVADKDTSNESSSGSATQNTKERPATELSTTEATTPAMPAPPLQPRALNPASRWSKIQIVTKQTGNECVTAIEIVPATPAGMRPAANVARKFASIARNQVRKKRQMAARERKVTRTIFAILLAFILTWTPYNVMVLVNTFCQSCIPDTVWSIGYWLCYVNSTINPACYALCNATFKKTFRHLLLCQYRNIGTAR
Format: cell-based
Summary of the method: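 CHO-K1 cells stably expressing human M4 and Gαqi5, dye-loaded ~1 h at 37 °C, read on FLIPR Tetra. Test compound added at increasing concentrations 4 min before acetylcholine at an EC20 concentration, sometimes followed by an EC70 addition. Dose-response curves fit to a 4-parameter logistic; result is the curve inflection point.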

| EC50 | SMILES |
| --- | --- |
| 25 nM | N#Cc1ccc(-c2cnc(C[C@@H]3CC[C@H](F)C3)o2)c(-c2ccc3cccnc3c2)n1 [Example 101, 5-(2-(((1S,3S)-3-fluorocyclopentyl)methyl)oxazol-5-yl)-6-(quinolin-7-yl)picolinonitrile] |
| 51 nM | COc1cc2ccc(-c3nc(C)ccc3-c3cnc(C(F)(F)C4CCCC4)o3)cc2nn1 [Example 102, 2-(cyclopentyldifluoromethyl)-5-(2-(3-methoxycinnolin-7-yl)-6-methylpyridin-3-yl)oxazole] |
| 86 nM | CC(C)(F)CCc1ncc(-c2ccc(C#N)nc2-c2ccc3cccnc3c2)o1 [Example 103, 5-(2-(3-fluoro-3-methylbutyl)oxazol-5-yl)-6-(quinolin-7-yl)picolinonitrile] |
| 147 nM | CC(C)(F)CCc1ncc(-c2ccc(C#N)nc2-c2ccn3ccnc3c2)o1 [Example 104, 5-(2-(3-fluoro-3-methylbutyl)oxazol-5-yl)-6-(imidazo[1,2-a]pyridin-7-yl) picolinonitrile] |
| 198 nM | Cc1nc2cc(-c3ncc(F)cc3-c3cnc(CCC(C)(C)F)o3)ccc2n1C [Example 105, 5-(2-(1,2-dimethyl-1H-benzo[d]imidazol-5-yl)-5-fluoropyridin-3-yl)-2-(3-fluoro-3-methylbutyl)oxazole] |
| 143 nM | Cc1cn2ccc(-c3nc(C#N)ccc3-c3cnc(CCC(O)C(F)(F)F)o3)cc2n1 (centres unmarked) [Example 106, 6-(2-methylimidazo[1,2-a]pyridin-7-yl)-5-(2-(4,4,4-trifluoro-3-hydroxybutyl)oxazol-5-yl)picolinonitrile] |
| 96 nM | Cc1cn2ccc(-c3nc(C#N)ccc3-c3cnc(CCC(F)(F)F)o3)cc2n1 [Example 107, 6-(2-methylimidazo[1,2-a]pyridin-7-yl)-5-(2-(3,3,3-trifluoropropyl)oxazol-5-yl)picolinonitrile] |
| 133 nM | Cc1cn2ccc(-c3nc(C#N)ccc3-c3cnc(CCC(F)(F)C(F)(F)F)o3)cc2n1 [Example 108, 6-(2-methylimidazo [1,2-a]pyridin-7-yl)-5-(2-(3,3,4,4,4-pentafluorobutyl)oxazol-5-yl) picolinonitrile] |
| 105 nM | N#Cc1ccc(-c2cnc(CCC(F)(F)C(F)(F)F)o2)c(-c2ccn3ccnc3c2)n1 [Example 109, 6-(imidazo[1,2-a]pyridin-7-yl)-5-(2-(3,3,4,4,4-pentafluorobutyl)oxazol-5-yl) picolinonitrile] |
| 118 nM | Cc1nc2cc(-c3nc(C#N)ccc3-c3cnc(CC(C)(C)C(F)(F)F)o3)ccn2n1 [Example 110, 6-(2-methyl-[1,2,4]triazolo [1,5-a]pyridin-7-yl)-5-(2-(3,3,3-trifluoro-2,2-dimethylpropyl)oxazol-5-yl)picolinonitrile] |
| 114 nM | Cc1nc2cc(-c3nc(C#N)ccc3-c3cnc(CC(C)(C)C(F)(F)F)o3)ccc2n1C [Example 111, 6-(1,2-dimethyl-1H-benzo[d]imidazol-5-yl)-5-(2-(3,3,3-trifluoro-2,2-dimethylpropyl)oxazol-5-yl)picolinonitrile] |
| 182 nM | Cc1nc2cc(-c3nc(C#N)ccc3-c3cnc(CCC(C)(F)F)o3)ccn2n1 [Example 112, 5-(2-(3,3-difluorobutyl)oxazol-5-yl)-6-(2-methyl-[1,2,4]triazolo [1,5-a]pyridin-7-yl)picolinonitrile] |
| 118 nM | Cc1nc2cc(-c3nc(C#N)ccc3-c3cnc(CCC(F)(F)F)o3)ccc2n1C [Example 113, 6-(1,2-dimethyl-1H-benzo[d]imidazol-5-yl)-5-(2-(3,3,3-trifluoropropyl)oxazol-5-yl)picolinonitrile] |
| 92 nM | Cn1cnc2cc(-c3nc(C#N)ccc3-c3cnc(CC(C)(C)C(F)(F)F)o3)ccc21 [Example 114, 6-(1-methyl-1H-benzo[d]imidazol-5-yl)-5-(2-(3,3,3-trifluoro-2,2-dimethylpropyl)oxazol-5-yl)picolinonitrile] |
| 128 nM | Cn1cnc2cc(-c3ncccc3-c3cnc(CC(C)(C)C(F)(F)F)o3)ccc21 [Example 115, 5-(2-(1-methyl-1H-benzo[d]imidazol-5-yl)pyridin-3-yl)-2-(3,3,3-trifluoro-2,2-dimethylpropyl) oxazole] |
| 47 nM | Cc1cn2ccc(-c3nc(C#N)ccc3-c3cnc(CCC(C)(C)F)o3)cc2n1 [Example 116, 5-(2-(3-fluoro-3-methylbutyl)oxazol-5-yl)-6-(2-methylimidazo [1,2-a]pyridin-7-yl)picolinonitrile] |
| 60 nM | Cc1nc2cc(-c3nc(C#N)ccc3-c3cnc(CCC(C)(C)F)o3)ccc2n1C [Example 117, 6-(1,2-dimethyl-1H-benzo[d]imidazol-5-yl)-5-(2-(3-fluoro-3-methylbutyl)oxazol-5-yl) picolinonitrile] |
